Experimental data taken from patent US20100029619A1, “FUSED HETEROCYCLIC COMPOUND” (TAKEDA PHARMACEUTICAL COMPANY LIMTED, priority 2006, published 2010).

Structure (SMILES)	melting point
CC(C)(C)c1ccc(C(=O)Nc2cn3nc(-n4cnc(Cl)c4Cl)ccc3n2)cc1 [Example 146, 4-tert-butyl-N-[6-(4,5-dichloro-1H-imidazol-1-yl)imidazo[1,2-b]pyridazin-2-yl]benzamide]	281 to 282 °C
CC(C)(C)c1ccc(C(=O)Nc2cn3nc(-n4cnc(Br)c4)ccc3n2)cc1 [Example 147, N-[6-(4-bromo-1H-imidazol-1-yl)imidazo[1,2-b]pyridazin-2-yl]-4-tert-butylbenzamide]	306 to 307 °C
CC(C)(C)c1ccc(C(=O)Nc2cn3nc(N)ccc3n2)cc1 [Example 148, N-(6-aminoimidazo[1,2-b]pyridazin-2-yl)-4-tert-butylbenzamide]	267 to 268 °C
CC(=O)c1ccc2nc(NC(=O)c3ccc(C(C)(C)C)cc3)cn2n1 [Example 151, N-(6-acetylimidazo[1,2-b]pyridazin-2-yl)-4-tert-butylbenzamide]	237 to 238 °C
CC(C)(C)c1ccc(C(=O)Nc2cn3nc(NCc4ccncc4)ccc3n2)cc1 [Example 159, 4-tert-butyl-N-{6-[(pyridin-4-ylmethyl)amino]imidazo[1,2-b]pyridazin-2-yl}benzamide]	222 to 223 °C
CC(C)(C)c1ccc(C(=O)Nc2cn3nc(NCc4cccnc4)ccc3n2)cc1 [Example 160, 4-tert-butyl-N-{6-[(pyridin-3-ylmethyl)amino]imidazo[1,2-b]pyridazin-2-yl}benzamide]	232 to 233 °C
CC(C)(C)c1ccc(C(=O)Nc2cn3nc(NCc4ccccn4)ccc3n2)cc1 [Example 161, 4-tert-butyl-N-{6-[(pyridin-2-ylmethyl)amino]imidazo[1,2-b]pyridazin-2-yl}benzamide]	196 to 197 °C
CC(C)(C)c1ccc(C(=O)Nc2cn3nc(NCCc4ccncc4)ccc3n2)cc1 [Example 162, 4-tert-butyl-N-{6-[(2-pyridin-4-ylethyl)amino]imidazo[1,2-b]pyridazin-2-yl}benzamide]	279 °C
CC(C)(C)c1ccc(C(=O)Nc2cn3nc(NCCc4cccnc4)ccc3n2)cc1 [Example 163, 4-tert-butyl-N-{6-[(2-pyridin-3-ylethyl)amino]imidazo[1,2-b]pyridazin-2-yl}benzamide]	231 °C
CC(C)(C)c1ccc(C(=O)Nc2cn3nc(NC4CCCCC4)ccc3n2)cc1 [Example 164, 4-tert-butyl-N-[6-(cyclohexylamino)imidazo[1,2-b]pyridazin-2-yl]benzamide]	296 to 297 °C
CC(C)(C)c1ccc(C(=O)Nc2cn3nc(NC4CCCC4)ccc3n2)cc1 [Example 165, 4-tert-butyl-N-[6-(cyclopentylamino)imidazo[1,2-b]pyridazin-2-yl]benzamide]	272 to 273 °C
CC(C)(C)c1ccc(C(=O)Nc2cn3nc(NC4CC4)ccc3n2)cc1 [Example 166, 4-tert-butyl-N-[6-(cyclopropylamino)imidazo[1,2-b]pyridazin-2-yl]benzamide]	274 to 275 °C
CCCNc1ccc2nc(NC(=O)c3ccc(C(C)(C)C)cc3)cn2n1 [Example 167, 4-tert-butyl-N-[6-(propylamino)imidazo[1,2-b]pyridazin-2-yl]benzamide]	243 to 244 °C
CN1CCC(Nc2ccc3nc(NC(=O)c4ccc(C(C)(C)C)cc4)cn3n2)CC1 [Example 168, 4-tert-butyl-N-{6-[(1-methylpiperidin-4-yl)amino]imidazo[1,2-b]pyridazin-2-yl}benzamide]	275 to 277 °C
CC(C)(C)c1ccc(C(=O)Nc2cn3nc(NCCO)ccc3n2)cc1 [Example 169, 4-tert-butyl-N-{6-[(2-hydroxyethyl)amino]imidazo[1,2-b]pyridazin-2-yl}benzamide]	231 to 233 °C
CC(C)(C)c1ccc(C(=O)Nc2cn3nc(NC4CCNC4)ccc3n2)cc1 (stereo not drawn) [Example 170, 4-tert-butyl-N-{6-[(pyrrolidin-3-yl)amino]imidazo[1,2-b]pyridazin-2-yl}benzamide]	264 to 265 °C
CC(C)(C)c1ccc(C(=O)Nc2cn3nc(NC4CCNCC4)ccc3n2)cc1 [Example 171, 4-tert-butyl-N-[6-(piperidin-4-ylamino)imidazo[1,2-b]pyridazin-2-yl]benzamide]	242 to 243 °C
CNCCNc1ccc2nc(NC(=O)c3ccc(C(C)(C)C)cc3)cn2n1 [Example 172, 4-tert-butyl-N-(6-{[2-(methylamino)ethyl]amino}imidazo[1,2-b]pyridazin-2-yl)benzamide]	200 to 201 °C
Cn1cc(-c2ccc3nc(NC(=O)c4ccc(C(C)(C)C)cc4)cn3n2)cn1 [Example 173, 4-tert-butyl-N-[6-(1-methyl-1H-pyrazol-4-yl)imidazo[1,2-b]pyridazin-2-yl]benzamide]	245 to 246 °C
CC(C)(C)c1ccc(C(=O)Nc2cn3nc(-c4cn[nH]c4)ccc3n2)cc1 [Example 174, 4-tert-butyl-N-[6-(1H-pyrazol-4-yl)imidazo[1,2-b]pyridazin-2-yl]benzamide]	358 to 362 °C (dec.)
Cn1cc(-c2ccc3nc(NC(=O)c4ccc(C(C)(C)C)nc4)cn3n2)cn1 [Example 176, 6-tert-butyl-N-[6-(1-methyl-1H-pyrazol-4-yl)imidazo[1,2-b]pyridazin-2-yl]nicotinamide]	251 to 252 °C
CC(C)(C)c1ccc(C(=O)Nc2cn3nc(-c4cnn(CCO)c4)ccc3n2)cc1 [Example 178, 4-tert-butyl-N-{6-[1-(2-hydroxyethyl)-1H-pyrazol-4-yl]imidazo[1,2-b]pyridazin-2-yl}benzamide]	226 to 229 °C

Next, values leading:

melting point	Structure (SMILES)
282 to 283 °C	Cc1cccc2nc(NC(=O)c3ccc(C(C)(C)C(=O)O)cc3)cn12 [Example 186, 2-methyl-2-{4-[(5-methylimidazo[1,2-a]pyridin-2-yl)carbamoyl]phenyl}propanoic acid]
260 °C	Cc1cccc2nc(NC(=O)c3ccc(C(C)(C)CCC(=O)O)cc3)cn12 [Example 187, 4-methyl-4-(4-{[(5-methylimidazo[1,2-a]pyridin-2-yl)amino]carbonyl}phenyl)pentanoic acid]
272 °C	Cc1cccc2nc(NC(=O)c3ccc(C4(C(=O)O)CCC4)cc3)cn12 [Example 188, 1-{4-[(5-methylimidazo[1,2-a]pyridin-2-yl)carbamoyl]phenyl}cyclobutanecarboxylic acid]
330 to 331 °C	O=C(Nc1cn2cc(Cl)ccc2n1)c1ccc(C2(C(=O)O)CC2)cc1 [Example 189, 1-{4-[(6-chloroimidazo[1,2-a]pyridin-2-yl)carbamoyl]phenyl}cyclopropanecarboxylic acid]
317.7 °C (dec.)	O=C(Nc1cn2cc(Cl)ccc2n1)c1ccc(C2(C(=O)O)CCC2)cc1 [Example 190, 1-{4-[(6-chloroimidazo[1,2-a]pyridin-2-yl)carbamoyl]phenyl}cyclobutanecarboxylic acid]
313 °C (dec.)	O=C(Nc1cn2cc(Cl)ccc2n1)c1ccc(C2(C(=O)O)CCCC2)cc1 [Example 191, 1-{4-[(6-chloroimidazo[1,2-a]pyridin-2-yl)carbamoyl]phenyl}cyclopentanecarboxylic acid]
288 °C	O=C(Nc1cn2cc(Cl)ccc2n1)c1ccc(C2(C(=O)O)CCCCC2)cc1 [Example 192, 1-(4-{[(6-chloroimidazo[1,2-a]pyridin-2-yl)amino]carbonyl}phenyl)cyclohexanecarboxylic acid]
229 to 230 °C	CC(C)(C)c1ccc(C(=O)Nc2cn3c(CO)cccc3n2)cc1 [Example 194, 4-tert-butyl-N-[5-(hydroxymethyl)imidazo[1,2-a]pyridin-2-yl]benzamide]
283 to 284 °C	CC(C)(CCc1noc(=O)[nH]1)c1ccc(C(=O)Nc2cn3cc(-n4ccnc4)ccc3n2)cc1 [Example 437, 4-[1,1-dimethyl-3-(5-oxo-4,5-dihydro-1,2,4-oxadiazol-3-yl)propyl]-N-[6-(1H-imidazol-1-yl)imidazo[1,2-a]pyridin-2-yl]benzamide]
194 to 195 °C	Cc1ccc2nc(NC(=O)c3ccc(C(C)(C)CCC#N)cc3)cn2c1 [Example 438, 4-(3-cyano-1,1-dimethylpropyl)-N-(6-methylimidazo[1,2-a]pyridin-2-yl)benzamide]
245 to 246 °C	Cc1ccc2nc(NC(=O)c3ccc(C(C)(C)CCc4nnn[nH]4)cc3)cn2c1 [Example 439, 4-[1,1-dimethyl-3-(1H-tetrazol-5-yl)propyl]-N-(6-methylimidazo[1,2-a]pyridin-2-yl)benzamide]
267 to 268 °C	Cc1ccc2nc(NC(=O)c3ccc(C(C)(C)CCc4noc(=O)[nH]4)cc3)cn2c1 [Example 440, 4-[1,1-dimethyl-3-(5-oxo-4,5-dihydro-1,2,4-oxadiazol-3-yl)propyl]-N-(6-methylimidazo[1,2-a]pyridin-2-yl)benzamide]
227 to 228 °C	CC(C)(CCC#N)c1ccc(C(=O)Nc2cn3c4c(ccc3n2)OCC4)cc1 [Example 441, 4-(3-cyano-1,1-dimethylpropyl)-N-(1,2-dihydrofuro[2,3-e]imidazo[1,2-a]pyridin-7-yl)benzamide]
233 to 234 °C	CC(C)(CCC#N)c1ccc(C(=O)Nc2cn3cc(C(F)(F)F)ccc3n2)cc1 [Example 445, 4-(3-cyano-1,1-dimethylpropyl)-N-[6-(trifluoromethyl)imidazo[1,2-a]pyridin-2-yl]benzamide]
268 to 270 °C	CC(C)(CCc1noc(=O)[nH]1)c1ccc(C(=O)Nc2cn3cc(C(F)(F)F)ccc3n2)cc1 [Example 447, 4-[1,1-dimethyl-3-(5-oxo-4,5-dihydro-1,2,4-oxadiazol-3-yl)propyl]-N-[6-(trifluoromethyl)imidazo[1,2-a]pyridin-2-yl]benzamide]
228 to 229 °C	CC(C)(CNC(=O)C(O)CO)c1ccc(C(=O)Nc2cn3cc(Cl)ccc3n2)cc1 (stereo not drawn) [Example 450, N-(6-chloroimidazo[1,2-a]pyridin-2-yl)-4-[2-(glyceroylamino)-1,1-dimethylethyl]benzamide]
270 °C (dec.)	CC(C)(CNC(=O)Cc1cnc[nH]1)c1ccc(C(=O)Nc2cn3cc(Cl)ccc3n2)cc1 [Example 451, N-(6-chloroimidazo[1,2-a]pyridin-2-yl)-4-{2-[(1H-imidazol-5-ylacetyl)amino]-1,1-dimethylethyl}benzamide]
